Values after ≈ are worked out from the molar mass of the structure shown. Values joined by “and” are separate entries in the source; they are usually repeats but may differ in a detail not shown here. Equal values may be shown once. Read-outs that look alike come from different tables or passages of the source.
Assays:
[1] = tested on: A. baumannii (ATCC 19606, wild-type); test: MIC on ESKAPE pathogens, A. baumannii; assay type: cell-based; settings: Acinetobacter baumannii
[2] = tested on: E. coli (ATCC 25922, wild-type); test: MIC on ESKAPE pathogens, E. coli wild-type; assay type: cell-based; settings: Escherichia coli
[3] = tested on: E. coli (ΔtolC efflux-defective mutant, isogenic to ATCC 25922); test: microbe, parasite or virus in culture; assay type: cell-based; settings: Escherichia coli, ATCC25922, read-out: MIC Ec ΔtolC
[4] = tested on: S. aureus (ATCC 29213, wild-type); test: MIC on ESKAPE pathogens, S. aureus; assay type: cell-based; settings: Staphylococcus aureus, ATCC29213
[5] = tested on: P. aeruginosa (PAO750 efflux-defective mutant, isogenic to PAO1); test: microbe, parasite or virus in culture; assay type: cell-based; settings: Pseudomonas aeruginosa, PAO1, read-out: MIC Pa efflux
[6] = molecular target: MtNDH-2 (Mycobacterium tuberculosis, UniProt P95160); test: biochemical; design: species or system M. tuberculosis; settings: MtNDH-2 IC50
[7] = tested on: P. aeruginosa (PAO1, wild-type); test: MIC on ESKAPE pathogens, P. aeruginosa wild-type; assay type: cell-based; settings: Pseudomonas aeruginosa, PAO1, P. aeruginosa PAO1, wild-type; read-out: MIC Pa WT
[8] = tested on: E. coli (D22, lpxC mutant, drug-hypersensitive); test: microbe, parasite or virus in culture; assay type: cell-based; settings: Escherichia coli, read-out: MIC Ec D22
[9] = tested on: M. tuberculosis strain H37Rv (ATCC 25618); test: MIC on M. tuberculosis by resazurin reduction microplate assay (REMA); assay type: cell-based; settings: Mycobacterium tuberculosis, M. tuberculosis H37Rv, read-out: MIC Mtb
[10] = tested on: K. pneumonia (ATCC 13833, wild-type); test: MIC on ESKAPE pathogens, K. pneumoniae
[11] = molecular target: MsNDH-2 (Mycolicibacterium smegmatis, UniProt A0QYD6); test: Inhibition of MsNDH-2 (NADH oxidation with menadione, absorbance at 340 nm); assay type: biochemical, M. smegmatis
[12] = Cytotoxicity on the MRC-5 cell line (resazurin); assay type: cell-based; settings: human, MRC-5SV2 cells, MRC-5SV2, 3 days
Protocol: MRC-5SV2 cells were cultured in Earl’s MEM + 5% FCSi. Assays were performed in 96-well microtiter plates, each well containing about 10^4 cells/well. After 3 days of incubation with or without compounds, cell viability was assessed fluorimetrically after the addition of resazurin (λex 550 nm, λem 590 nm). The results were expressed as % reduction in cell growth/viability compared to untreated control wells and CC50 was determined. Testing/retesting strategy was as described above for HepG2 cells.

[13] = tested on: E. coli MG1655 ΔtolC resistant mutants; test: microbe, parasite or virus in culture; assay type: cell-based; settings: for MIC: Escherichia coli
[14] = ATCC19606, A. baumannii ATCC 19606, wild-type, read-out: MIC Ab WT
[15] = ATCC25922, E. coli ATCC 25922, wild-type, read-out: MIC Ec WT
[16] = 95% confidence interval in parentheses, 50 nM enzyme, 50 μM menadione, >100: no significant inhibition at 100 μM
[17] = same IC50 given in μg/mL to assist comparisons with MICs

MsNDH-2, sequence (A0QYD6 1-457): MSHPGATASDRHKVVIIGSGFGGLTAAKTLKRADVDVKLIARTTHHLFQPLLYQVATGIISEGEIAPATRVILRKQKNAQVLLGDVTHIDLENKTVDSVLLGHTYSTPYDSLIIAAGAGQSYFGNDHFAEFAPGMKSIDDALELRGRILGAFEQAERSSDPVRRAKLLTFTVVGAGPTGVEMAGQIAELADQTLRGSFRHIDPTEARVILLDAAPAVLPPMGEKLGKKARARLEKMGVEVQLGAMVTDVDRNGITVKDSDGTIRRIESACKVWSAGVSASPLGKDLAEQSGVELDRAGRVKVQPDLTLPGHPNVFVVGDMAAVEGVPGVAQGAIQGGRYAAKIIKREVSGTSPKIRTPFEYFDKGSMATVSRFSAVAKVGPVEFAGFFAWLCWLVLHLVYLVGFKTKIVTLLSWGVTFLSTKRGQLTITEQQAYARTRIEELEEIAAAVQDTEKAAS
MtNDH-2, sequence (P95160 2-463, added parts left off): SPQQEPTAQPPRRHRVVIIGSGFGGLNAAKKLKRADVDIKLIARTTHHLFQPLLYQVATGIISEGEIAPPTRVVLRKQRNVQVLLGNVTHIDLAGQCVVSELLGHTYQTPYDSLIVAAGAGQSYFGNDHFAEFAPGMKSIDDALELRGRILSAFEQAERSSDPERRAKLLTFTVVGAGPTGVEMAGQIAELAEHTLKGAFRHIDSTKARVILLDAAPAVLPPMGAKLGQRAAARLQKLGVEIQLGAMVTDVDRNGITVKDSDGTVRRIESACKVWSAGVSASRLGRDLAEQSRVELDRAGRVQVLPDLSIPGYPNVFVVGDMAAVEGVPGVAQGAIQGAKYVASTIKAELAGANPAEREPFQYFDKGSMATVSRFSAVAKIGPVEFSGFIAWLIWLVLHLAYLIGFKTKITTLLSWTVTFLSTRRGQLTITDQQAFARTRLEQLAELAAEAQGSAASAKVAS

Row | Compound | MIC [1, 14] | MIC [2, 15] | MIC [3] | MIC [4] | MIC [5] | IC50 [6] | MIC [7] | MIC [8] | MIC [9] | MIC Kp WT [10] | IC50 [11, 16] | IC50 [11, 17] | IC50 at 3 days ([12]; resazurin) | IC50 at 3 days ([12]; value in parentheses) | further results
1 | Nc1ccc2nc(-c3ccc(F)cc3)cc(N)c2c1 [Compound 6, 2-(4-Fluorophenyl)quinoline-4,6-diamine] | > 64 µg/mL | > 64 µg/mL | > 64 µg/mL | 64 µg/mL (≈ 253 µM) | 64 µg/mL (≈ 253 µM) | 1.2 µM and 1.18 µM | > 64 µg/mL | 64 µg/mL (≈ 253 µM) | 12.5 µg/mL (≈ 49.4 µM) | >64 µg/mL | – | – | – | – | –
2 | Nc1nc(Cl)cc(Nc2ccc3nc(-c4ccc(F)cc4)cc(N)c3c2)n1 [Compound 7, N^6-(2-Amino-6-chloropyrimidin-4-yl)-2-(4-fluorophenyl)quinoline-4,6-diamine] | 2 µg/mL (≈ 5.25 µM) | > 128 µg/mL | 64 µg/mL (≈ 168 µM) | 4 µg/mL (≈ 10.5 µM) | 16 µg/mL (≈ 42 µM) | – | > 128 µg/mL | 16 µg/mL (≈ 42 µM) | 4.7 µg/mL (≈ 12.3 µM) | >128 µg/mL | 3.1 µM | 3.15 µM | 1.1 µM | 0.4 µg/mL | –
3 | Nc1nc(Nc2ccc3nc(-c4ccc(F)cc4)cc(N)c3c2)cc(N2CCNCC2)n1 [Compound 8a, N^6-(2-Amino-6-(piperazin-1-yl)pyrimidin-4-yl)-2-(4-fluorophenyl)quinoline-4,6-diamine] | > 64 µg/mL | 8 µg/mL (≈ 18.6 µM) | – | 32 µg/mL (≈ 74.3 µM) | 4 µg/mL (≈ 9.29 µM) | 3.1 µM and 3.02 µM | 8 µg/mL (≈ 18.6 µM) | 4 µg/mL (≈ 9.29 µM) | > 43 µg/mL | >64 µg/mL | 9.7 µM | 9.76 µM | 24 µM | 10 µg/mL | MIC ([13]; MG1655, read-out: MIC mutant, mutant CH4954 raised against 8a, basS (pmrB) Glu121Lys waaY (rfaY) Asp160fs): 8 µg/mL (≈ 18.6 µM); MIC ([13]; MG1655, read-out: MIC mutant, mutant CH4955 raised against 8a, basR (pmrA) Gly53Glu): 16 µg/mL (≈ 37.2 µM); MIC ([13]; MG1655, read-out: MIC mutant, mutant CH4956 raised against 8a, basS (pmrB) Leu10Arg): 8 µg/mL (≈ 18.6 µM); MIC ([13]; MG1655, read-out: MIC mutant, mutant CH4957 raised against 8a, asmA Asn295fs waaP (rfaP) Glu258 stop codon): 16 µg/mL (≈ 37.2 µM); MIC ([13]; MG1655, read-out: MIC mutant, mutant CH5084 raised against 8a, basS (pmrB) Ala159Pro preB Ala13fs): 16 µg/mL (≈ 37.2 µM); fold increase of MIC ([13]; mutant CH4954 vs parent E. coli MG1655 ΔtolC): 2; fold increase of MIC ([13]; mutant CH4955 vs parent E. coli MG1655 ΔtolC): 4; fold increase of MIC ([13]; mutant CH4956 vs parent E. coli MG1655 ΔtolC): 2; fold increase of MIC ([13]; mutant CH4957 vs parent E. coli MG1655 ΔtolC): 4; fold increase of MIC ([13]; mutant CH5084 vs parent E. coli MG1655 ΔtolC): 4
4 | Nc1nc(Nc2ccc3nc(-c4ccc(F)cc4)cc(N)c3c2)cc(N2CCOCC2)n1 [Compound 8b, N^6-(2-Amino-6-morpholinopyrimidin-4-yl)-2-(4-fluorophenyl) quinoline-4,6-diamine] | 16 µg/mL (≈ 37.1 µM) | 64 µg/mL (≈ 148 µM) | 16 µg/mL (≈ 37.1 µM) | 32 µg/mL (≈ 74.2 µM) | 32 µg/mL (≈ 74.2 µM) | – | ≥ 64 µg/mL | 16 µg/mL (≈ 37.1 µM) | – | 64 µg/mL (≈ 148 µM) | > 100 µM | > 99.7 µM | – | – | –
5 | CN1CCN(c2cc(Nc3ccc4nc(-c5ccc(F)cc5)cc(N)c4c3)nc(N)n2)CC1 [Compound 8c, N^6-(2-Amino-6-(4-methylpiperazin-1-yl)pyrimidin-4-yl)-2-(4-fluorophenyl)quinoline-4,6-diamine] | > 128 µg/mL | 128 µg/mL (≈ 288 µM) | 16 µg/mL (≈ 36 µM) | 128 µg/mL (≈ 288 µM) | 16 µg/mL (≈ 36 µM) | 6.2 µM and 6.3 µM | 64 µg/mL (≈ 144 µM) | 16 µg/mL (≈ 36 µM) | 15.6 µg/mL (≈ 35.1 µM) | >128 µg/mL | 40 µM | 40.5 µM | – | – | –
6 | CC(C)N1CCN(c2cc(Nc3ccc4nc(-c5ccc(F)cc5)cc(N)c4c3)nc(N)n2)CC1 [Compound 8d, N^6-(2-Amino-6-(4-isopropylpiperazin-1-yl)pyrimidin-4-yl)-2-(4-fluorophenyl)quinoline-4,6-diamine] | > 128 µg/mL | 64 µg/mL (≈ 135 µM) | 32 µg/mL (≈ 67.7 µM) | 128 µg/mL (≈ 271 µM) | 32 µg/mL (≈ 67.7 µM) | 3.6 µM | 64 µg/mL (≈ 135 µM) | 32 µg/mL (≈ 67.7 µM) | 7.6 µg/mL (≈ 16.1 µM) | 128 µg/mL (≈ 271 µM) | 19 µM | 18.8 µM | – | – | –
7 | Nc1nc(Nc2ccc3nc(-c4ccc(F)cc4)cc(N)c3c2)cc(N2CCN(CCO)CC2)n1 [Compound 8e, 2-(4-(2-Amino-6-((4-amino-2-(4-fluorophenyl)quinolin-6-yl)amino)pyrimidin-4-yl)piperazin-1-yl)ethan-1-ol] | – | – | 32 µg/mL (≈ 67.4 µM) | 128 µg/mL (≈ 270 µM) | > 128 µg/mL | 6.6 µM and 6.53 µM | 64 µg/mL (≈ 135 µM) | 32 µg/mL (≈ 67.4 µM) | 16 µg/mL (≈ 33.7 µM) | 128 µg/mL (≈ 270 µM) | > 100 µM | > 99 µM | – | – | MIC ([1]; ATCC19606, read-out: MIC Ab WT): > 128 µg/mL; MIC ([2]; ATCC25922, read-out: MIC Ec WT): > 128 µg/mL
8 | CN(C)C1CCN(c2cc(Nc3ccc4nc(-c5ccc(F)cc5)cc(N)c4c3)nc(N)n2)CC1 [Compound 8f, N^6-(2-Amino-6-(4-(dimethylamino)piperidin-1-yl)pyrimidin-4-yl)-2-(4-fluorophenyl)quinoline-4,6-diamine] | > 128 µg/mL | > 128 µg/mL | 32 µg/mL (≈ 67.7 µM) | > 128 µg/mL | – | 5.6 µM and 5.5 µM | 32 µg/mL (≈ 67.7 µM) | 32 µg/mL (≈ 67.7 µM) | 10.9 µg/mL (≈ 23.1 µM) | >128 µg/mL | > 100 µM | > 99.5 µM | – | – | –
9 | NCC1CCN(c2cc(Nc3ccc4nc(-c5ccc(F)cc5)cc(N)c4c3)nc(N)n2)CC1 [Compound 8h, N^6-(2-Amino-6-(4-(aminomethyl)piperidin-1-yl)pyrimidin-4-yl)-2-(4-fluorophenyl)quinoline-4,6-diamine] | > 128 µg/mL | 64 µg/mL (≈ 140 µM) | 16 µg/mL (≈ 34.9 µM) | 32 µg/mL (≈ 69.8 µM) | 8 µg/mL (≈ 17.4 µM) | – | 4 µg/mL (≈ 8.72 µM) | 8 µg/mL (≈ 17.4 µM) | > 46 µg/mL | >128 µg/mL | 6.9 µM | 6.98 µM | 8 µM | 3.7 µg/mL | –
10 | Nc1nc(Nc2ccc3nc(-c4ccc(F)cc4)cc(N)c3c2)cc(N2CCCC(O)C2)n1 (stereo not drawn) [Compound 8o, 1-(2-Amino-6-((4-amino-2-(4-fluorophenyl)quinolin-6-yl)amino)pyrimidin-4-yl)piperidin-3-ol] | 32 µg/mL (≈ 71.8 µM) | 32 µg/mL (≈ 71.8 µM) | 16 µg/mL (≈ 35.9 µM) | 64 µg/mL (≈ 144 µM) | 32 µg/mL (≈ 71.8 µM) | 3.4 µM and 3.37 µM | > 64 µg/mL | 16 µg/mL (≈ 35.9 µM) | 10.2 µg/mL (≈ 22.9 µM) | >64 µg/mL | – | – | – | – | –
11 | Nc1nc(Nc2ccc3nc(-c4ccc(F)cc4)cc(N)c3c2)cc(N2CCC(O)CC2)n1 [Compound 8p, 1-(2-Amino-6-((4-amino-2-(4-fluorophenyl)quinolin-6-yl)amino)pyrimidin-4-yl)piperidin-4-ol] | 64 µg/mL (≈ 144 µM) | 64 µg/mL (≈ 144 µM) | 32 µg/mL (≈ 71.8 µM) | 64 µg/mL (≈ 144 µM) | > 64 µg/mL | 5.1 µM and 5.16 µM | > 64 µg/mL | 32 µg/mL (≈ 71.8 µM) | 16.5 µg/mL (≈ 37 µM) | >64 µg/mL | – | – | – | – | –
12 | Nc1nc(Nc2ccc3nc(-c4ccc(F)cc4)ccc3c2)cc(N2CCNCC2)n1 [Compound 21, N^4-(2-(4-Fluorophenyl)quinolin-6-yl)-6-(piperazin-1-yl)pyrimidine-2,4-diamine] | 32 µg/mL (≈ 77 µM) | 16 µg/mL (≈ 38.5 µM) | 8 µg/mL (≈ 19.3 µM) | 8 µg/mL (≈ 19.3 µM) | 4 µg/mL (≈ 9.63 µM) | – | > 64 µg/mL | 16 µg/mL (≈ 38.5 µM) | 22.3 µg/mL (≈ 53.7 µM) | 64 µg/mL (≈ 154 µM) | 32 µM | 31.3 µM | 8 µM | 3.3 µg/mL | –
13 | Fc1ccc(-c2ccc3cc(Nc4cc(N5CCNCC5)ncn4)ccc3n2)cc1 [Compound 23, 2-(4-Fluorophenyl)-N-(6-(piperazin-1-yl)pyrimidin-4-yl)quinolin-6-amine] | 64 µg/mL (≈ 160 µM) | > 64 µg/mL | 8 µg/mL (≈ 20 µM) | 8 µg/mL (≈ 20 µM) | 4 µg/mL (≈ 9.99 µM) | – | > 64 µg/mL | 16 µg/mL (≈ 40 µM) | 7.1 µg/mL (≈ 17.7 µM) | 64 µg/mL (≈ 160 µM) | 24 µM | 24 µM | 7.9 µM | 3.2 µg/mL | –

— paper PMC8922281, “Synthesis and In Vitro Biological Evaluation of Quinolinyl Pyrimidines Targeting Type II NADH-Dehydrogenase (NDH-2)” (ACS Infectious Diseases, 2022)
